The text below walks through data of ChEMBL document CHEMBL1150850, “Cytotoxic principles from Ventilago leiocarpa” (J Nat Prod, 2001).

What is called IC50 is the concentration needed to halve the response being measured.

The subject of data set [1] is Calu-1. Briefly: Inhibition of human Calu1 cell proliferation assessed as [3H]thymidine incorporation after 3 days by scintillation counting. Type of data set: functional, cell-based.
For data set [2], the system named is Vero. Put plainly: Inhibition of african green monkey Vero cell proliferation assessed as [3H]thymidine incorporation after 3 days by scintillation counting. The data set is classed as cell-based. The conditions noted are these: Chlorocebus sabaeus.
For data set [3], the system named is K562. Briefly: Inhibition of human K562 cell proliferation assessed as [3H]thymidine incorporation after 3 days by scintillation counting. The data set is classed as functional, cell-based. On the technique in general: Incorporation of labelled thymidine or its analogues reports DNA synthesis.
The test system of data set [4] is HeLa. Put plainly: Inhibition of human HeLa cell proliferation assessed as [3H]thymidine incorporation after 3 days by scintillation counting. Type of data set: functional, cell-based.
Data set [5] has as its system WISH. Briefly: Inhibition of human WISH cell proliferation assessed as [3H]thymidine incorporation after 3 days by scintillation counting. The data set is classed as functional, cell-based.
Data set [6] concerns Raji. Put plainly: Inhibition of human Raji cell proliferation assessed as [3H]thymidine incorporation after 3 days by scintillation counting. Type of data set: functional, cell-based.
Data set [7] deals with WISH. Put plainly: Growth inhibition of human WISH cells assessed as [3H]thymidine incorporation at 50 uM after 3 days by scintillation counting. Type of data set: functional. The conditions noted are these: read-out: GI.
The test system of data set [8] is WISH. Briefly: Growth inhibition of human WISH cells assessed as [3H]thymidine incorporation at 12.5 uM after 3 days by scintillation counting. The data set is classed as functional. Conditions: read-out: GI.
Data set [9] relates to HeLa. Put plainly: Growth inhibition of human HeLa cells assessed as [3H]thymidine incorporation at 100 uM after 3 days by scintillation counting. Type of data set: functional. The conditions noted are these: read-out: GI.
Data set [10] relates to Raji. Briefly: Growth inhibition of human Raji cells assessed as [3H]thymidine incorporation at 12.5 uM after 3 days by scintillation counting. Type of data set: functional. The conditions noted are these: read-out: GI.
Data set [11] concerns Raji. Put plainly: Growth inhibition of human Raji cells assessed as [3H]thymidine incorporation at 50 uM after 3 days by scintillation counting. Type of data set: functional. Conditions: read-out: GI.
Data set [12] concerns Calu-1. Briefly: Growth inhibition of human Calu1 cells assessed as [3H]thymidine incorporation at 50 uM after 3 days by scintillation counting. Type of data set: functional. Conditions: read-out: GI.
The nature of data set [13]: Growth inhibition of african green monkey Vero cells assessed as [3H]thymidine incorporation at 6.25 uM after 3 days by scintillation counting. Type of data set: cell-based. Conditions: chlorocebus sabaeus, read-out: GI.
For data set [14], the system named is K562. Put plainly: Growth inhibition of human K562 cells assessed as [3H]thymidine incorporation at 100 uM after 3 days by scintillation counting. The conditions noted are these: read-out: GI. Type of data set: functional.
In data set [15] the test system is Calu-1. Put plainly: Growth inhibition of human Calu1 cells assessed as [3H]thymidine incorporation at 100 uM after 3 days by scintillation counting. Conditions: read-out: GI. Type of data set: functional.
Data set [16] is described as follows: Growth inhibition of african green monkey Vero cells assessed as [3H]thymidine incorporation at 25 uM after 3 days by scintillation counting. Type of data set: cell-based. The conditions noted are these: chlorocebus sabaeus, read-out: GI.
In data set [17] the test system is WISH. Briefly: Growth inhibition of human WISH cells assessed as [3H]thymidine incorporation at 6.25 uM after 3 days by scintillation counting. Type of data set: functional. Conditions: read-out: GI.
Data set [18] can be described thus: Growth inhibition of african green monkey Vero cells assessed as [3H]thymidine incorporation at 50 uM after 3 days by scintillation counting. Type of data set: cell-based. The conditions noted are these: chlorocebus sabaeus, read-out: GI.
Data set [19] has as its system HeLa. Put plainly: Growth inhibition of human HeLa cells assessed as [3H]thymidine incorporation at 25 uM after 3 days by scintillation counting. Type of data set: functional. The conditions noted are these: read-out: GI.
Data set [20] deals with Raji. Briefly: Growth inhibition of human Raji cells assessed as [3H]thymidine incorporation at 100 uM after 3 days by scintillation counting. The data set is classed as functional. The conditions noted are these: read-out: GI.
Data set [21] deals with HeLa. Put plainly: Growth inhibition of human HeLa cells assessed as [3H]thymidine incorporation at 6.25 uM after 3 days by scintillation counting. The data set is classed as functional. The conditions noted are these: read-out: GI.
Data set [22] concerns Vero. Put plainly: Growth inhibition of african green monkey Vero cells assessed as [3H]thymidine incorporation at 12.5 uM after 3 days by scintillation counting. Type of data set: cell-based. Conditions: chlorocebus sabaeus, 72 h.
For data set [23], the system named is Calu-1. Briefly: Growth inhibition of human Calu1 cells assessed as [3H]thymidine incorporation at 25 uM after 3 days by scintillation counting. The data set is classed as functional. Conditions: read-out: GI.
Data set [24] relates to WISH. Briefly: Growth inhibition of human WISH cells assessed as [3H]thymidine incorporation at 100 uM after 3 days by scintillation counting. Conditions: read-out: GI. Type of data set: functional.
The subject of data set [25] is Raji. Briefly: Growth inhibition of human Raji cells assessed as [3H]thymidine incorporation at 6.25 uM after 3 days by scintillation counting. The data set is classed as functional. Conditions: read-out: GI.
The subject of data set [26] is Raji. Briefly: Growth inhibition of human Raji cells assessed as [3H]thymidine incorporation at 25 uM after 3 days by scintillation counting. Type of data set: functional. Conditions: read-out: GI.
Data set [27] concerns HeLa. Briefly: Growth inhibition of human HeLa cells assessed as [3H]thymidine incorporation at 12.5 uM after 3 days by scintillation counting. The data set is classed as functional. The conditions noted are these: read-out: GI.
Data set [28] deals with HeLa. Briefly: Growth inhibition of human HeLa cells assessed as [3H]thymidine incorporation at 50 uM after 3 days by scintillation counting. Type of data set: functional. Conditions: read-out: GI.
Data set [29] deals with Calu-1. Put plainly: Growth inhibition of human Calu1 cells assessed as [3H]thymidine incorporation at 12.5 uM after 3 days by scintillation counting. Type of data set: functional. Conditions: read-out: GI.
In data set [30] the test system is Calu-1. Briefly: Growth inhibition of human Calu1 cells assessed as [3H]thymidine incorporation at 6.25 uM after 3 days by scintillation counting. Conditions: read-out: GI. Type of data set: functional.
Data set [31] is described as follows: Growth inhibition of african green monkey Vero cells assessed as [3H]thymidine incorporation at 100 uM after 3 days by scintillation counting. Type of data set: cell-based. The conditions noted are these: chlorocebus sabaeus, read-out: GI.
The test system of data set [32] is WISH. Briefly: Growth inhibition of human WISH cells assessed as [3H]thymidine incorporation at 25 uM after 3 days by scintillation counting. Conditions: read-out: GI. The data set is classed as functional.

On to `COc1c(O)cc2c(c1OC)C(=O)c1c(cc(C)c(O)c1O)C2=O`, for which the IC50 in the data set on Calu-1 [1], in the data set with Vero [2], with K562 [3], in the data set with HeLa [4], in the data set with WISH [5] and in the data set with Raji [6] was > 100 µM throughout.

For `COc1cc(O)c2c(c1)C(=O)c1c(O)c(C)cc(O)c1C2=O` [PARIETIN], the IC50 with Calu-1 [1], in the data set on Vero [2], with K562 [3], in the data set with HeLa [4], in the data set with WISH [5] and in the data set on Raji [6] was > 100 µM throughout.

Turning to `Cc1cc(O)c2c(c1O)C(=O)c1cccc(O)c1C2=O` [ISLANDICIN], the IC50 in the data set with Calu-1 [1], with Vero [2], in the data set with K562 [3], in the data set with HeLa [4], in the data set on WISH [5] and with Raji [6] was > 100 µM throughout.

Take `C=C(C)[C@@H]1CC[C@]2(C)CC[C@]3(C)[C@H](CC[C@@H]4[C@@]5(C)CC[C@H](O)C(C)(C)[C@@H]5CC[C@]43C)[C@@H]12` [LUPEOL]: the IC50 in the data set with Calu-1 [1], in the data set with Vero [2], in the data set with K562 [3], in the data set with HeLa [4], with WISH [5] and with Raji [6] was > 100 µM in each case.

Consider `O=C1c2c(O)cc(O)cc2O[C@H](c2ccc(O)cc2)[C@H]1O` [DIHYDROKAEMPFEROL], for which the IC50 in the data set with Calu-1 [1], in the data set with Vero [2], with K562 [3], in the data set on HeLa [4], in the data set on WISH [5] and in the data set with Raji [6] was > 100 µM in each case.

`Cc1cc(O)c2c(c1)C(=O)c1cccc(O)c1C2=O` [CHRYSOPHANOL]: the 50% inhibitory concentration (IC50) in the data set with Calu-1 [1], with Vero [2], in the data set with K562 [3], in the data set on HeLa [4], with WISH [5] and in the data set on Raji [6] was > 100 µM each time.

With `CC1(C)CC[C@]2(C)CC=C3[C@]4(C)CC[C@H]5C(C)(C)[C@@H](O)CC[C@]5(C)[C@H]4CC[C@@]3(C)[C@@H]2C1` [TARAXEROL], the IC50 with Calu-1 [1], in the data set with Vero [2], in the data set with K562 [3], in the data set on HeLa [4], in the data set on WISH [5] and with Raji [6] was > 100 µM each time.

As to `COC1=C(O)C(=O)c2c(O)c3c(c(OC)c2C1=O)CC(C)OC3C` (centres undefined) [VENTILOQUINONE K], the IC50 in the data set with Calu-1 [1], in the data set on Vero [2], in the data set on K562 [3], in the data set on HeLa [4], in the data set with WISH [5] and with Raji [6] was > 100 µM in each case.

On to `Cc1cc(O)c2c(c1)C(=O)c1cc(O)cc(O)c1C2=O` [EMODIN], for which the inhibition of growth at 50 µM was 63.3% with WISH [7], 47.2% in the data set with Raji [11], 100% in the data set on Calu-1 [12] and 100% in the data set with HeLa [28]. Also, the inhibition of growth at 12.5 µM in the data set on WISH [8] came out at 22%; with Raji [10] it was 41.2%; with HeLa [27], 41.9%; with Calu-1 [29], 60.6%. For the same compound, the IC50 is 6.25 µM in the data set on Calu-1 [1]; 40 µM with Vero [2]; > 100 µM in the data set with K562 [3]; 15.6 µM with HeLa [4]; 28.8 µM with WISH [5]; 43.8 µM in the data set on Raji [6]. Also, the inhibition of growth at 100 µM in the data set with HeLa [9] turned out to be 100%; with K562 [14] it was 29.5%; with Calu-1 [15] it was 100%; in the data set with Raji [20], 100%; with WISH [24], 80.7%. The inhibition at 72 h, 6.25 µM in data set [13] came out at 3.3%. Besides, the inhibition at 72 h, 25 µM in data set [16] was 26.7%. Besides, the inhibition of growth at 6.25 µM in the data set with WISH [17] was 8.7%; in the data set with HeLa [21], 24.7%; in the data set with Raji [25] it was 0.3%; in the data set on Calu-1 [30], 49.4%. The inhibition at 72 h, 50 µM in data set [18] is 64.4%. Also, the inhibition of growth at 25 µM in the data set on HeLa [19] worked out at 78.3%; in the data set on Calu-1 [23], 100%; with Raji [26], 45.8%; with WISH [32], 61.9%. For the same compound, the “growth inhibition (GI)” value with Vero [22] was determined as 13.7%. For the same compound, in [31], the inhibition at 72 h, 100 µM was 69.1%.

Regarding `Cc1cc(O)c2c(c1O)C(=O)c1cc(O)cc(O)c1C2=O` [CATENARIN], the IC50 in the data set with Calu-1 [1], in the data set on Vero [2], in the data set on K562 [3], with HeLa [4], in the data set on WISH [5] and in the data set with Raji [6] was > 100 µM in each case.

`COC1=C(O)C(=O)c2c(cc3c(c2O)C(C)OC(C)C3)C1=O` (centres undefined) [VENTILOQUINONE I]: the IC50 in the data set with Calu-1 [1], in the data set on Vero [2], in the data set with K562 [3], in the data set with HeLa [4], in the data set with WISH [5] and in the data set on Raji [6] was > 100 µM each time.

As for `COc1cc(C)c(O)c2c1C(=O)c1c(O)cccc1C2=O`, the IC50 with Calu-1 [1], in the data set on Vero [2], in the data set with K562 [3], with HeLa [4], with WISH [5] and in the data set on Raji [6] was > 100 µM each time.

Regarding `CC[C@H](/C=C/[C@@H](C)[C@H]1CC[C@H]2[C@@H]3CC=C4C[C@@H](O)CC[C@]4(C)[C@H]3CC[C@]12C)C(C)C` [STIGMASTEROL], the IC50 in the data set with Calu-1 [1], in the data set on Vero [2], in the data set with K562 [3], in the data set with HeLa [4], in the data set with WISH [5] and in the data set with Raji [6] was > 100 µM in each case.
